Experimental data from patent US20040259926A1, “3-Aryloxy and 3-heteroaryloxy substituted benzo[b]thiophenes as therapeutic agents” (priority 2003, published 2004).

target: T1, PI3Kγ (recombinant p101/p110γ protein) (Homo sapiens, UniProt P48736); test: PI3Kγ In Vitro Kinase Assay; assay type: biochemical; conditions: purified recombinant p101/p110γ with G protein β1/γ2 subunits; 20 μM ATP, [γ-32P-ATP]; 25 μM PIP2 lipid micelles; 20 minutes at room temperature
T1 construct: HA; made in house; host or cells: Spodoptera frugiperda (Sf9) cells, baculovirus co-infection
Experimental: Spodtera frugiperda cells, grown in ESF921 media, were coinfected with baculovirus expressing a glu-tagged […] and baculovirus expressing an HA-tagged p110γ, at a 3:1 ratio of p101 baculovirus to p110γ baculovirus. Sf9 cells were grown to 1×10^7 total cells/mL in 10 L bioreactors and harvested 48-72 hours post infection. Samples of infected cells were then tested for expression of p101/p110γ PI3 kinase by immunoprecipitation and Western Blot analysis methods (see below).
To purify PI3Kγ, 4 volumes of room temperature hypotonic lysis buffer (1 mM MgCl2, 1 mM DTT, 5 mM EGTA, 1 mM Pefabloc, 0.5 μM aprotinin, 5 μM leupeptin, 2 μM pepstatin, 5 μM E64, pH 8) per gram of cell paste, was poured onto frozen cell pellets with stirring, then lysed in a nitrogen “bomb” at 400 psi (599 HC T316, Parr Instrument Co, Moline, Ill.). NaCl was added to 150 mM, and sodium cholate was added to 1% and mixed for another 45 minutes. The lysates were clarified by centrifugation for 25 minutes at 14,000 rpm. The lysates were then loaded over anti-glu-linked Protein-G Sepaharose beads (Covance Research Products, Richmond, Calif.) using 20 mL resin/50 g cell paste. The column was washed with 15 volumes of wash buffer (1 mM DTT, 0.2 mM EGTA, 1 mM Pefabloc, 0.5 μM aprotinin, 5 μM leupeptin, 2 μM pepstatin, 5 μM E64, 150 mM NaCl, 1% sodium cholate, pH 8). PI3Kγ was eluted with 6 column volumes of wash buffer that contain 100 μg/mL of a peptide that competes for binding of the glu tag. The column fractions with the eluted protein (determined by taking OD280 readings) were collected and dialyzed in 0.2 mM EGTA, 1 mM DTT, 1 mM Pefabloc, 5 μM leupeptin, 0.5% sodium cholate, 150 mM NaCl, and 50% glycerol, pH 8. The fractions were stored at −80° C. until further use.
Spodtera frugiperda cells were coinfected with baculovirus expressing a glu-tagged G protein β1 and baculovirus expressing a G protein β2 at a 1:1 ratio of glu-tagged G protein β1 baculovirus to G protein β2 baculovirus. Sf9 cells are grown in 10 L bioreactors and harvested 48-72 hours post infection. Samples of infected cells were tested for G protein β1/β2 expression by Western Blot analysis, as described below. Cell lysates were homogenized and loaded onto a column of glu-tagged beads as in Biological Example 1 and competed off the column with a glu peptide and processed as described in Biological Example 1.
The inhibitory properties of the compounds in Table 1 were assayed in an in vitro PI3K assay. In a 96-well polypropylene plate, each well was spotted with 2 μL of 50 times the desired final concentration of compound in DMSO. Purified recombinant p101/p110γ protein (0.03 μg; ˜2.7 nM) and G protein β1/γ2 subunits (0.09 μg; ˜57.7 nM) for each reaction was combined in the assay buffer (30 mM HEPES, 100 mM NaCl, 1 mM EGTA, and 1 mM DTT). ATP and [γ-^32P-ATP] (0.09 μCi) were added to this mixture so that the final ATP concentration in the reaction was 20 μM. Lipid micelles were formed by sonicating phosphatidylinositol-4,5-diphosphate (PIP2), phosphatidylethanolamine (PE), and Na-cholate in the assay buffer for 10 minutes, adding MgCl2 and incubating on ice for 20 minutes, for final concentrations of 25 μM PIP2, 300 μM PE, 0.02% Na-cholate, and 10 mM MgCl2 in the reaction. The reactions were started by adding equal volumes lipid and enzyme mixture in a total volume of 50 μL, allowed to run for 20 minutes at room temperature, and stopped with 100 μL 75 mM H3PO4. The lipid product was transferred to a glass fiber filter plate and washed with 75 mM H3PO4 several times. The presence of radioactive lipid product (PIP3) was measured by adding Wallac Optiphase mix to each well and counting in a Wallac 1450 Trilux plate reader (PerkinElmer Life Sciences Inc., Boston, Mass. 02118). The IC50 for each compound tested is reported in μM in Table 1: […]

T1 sequence (P48736 whole entry, species assumed): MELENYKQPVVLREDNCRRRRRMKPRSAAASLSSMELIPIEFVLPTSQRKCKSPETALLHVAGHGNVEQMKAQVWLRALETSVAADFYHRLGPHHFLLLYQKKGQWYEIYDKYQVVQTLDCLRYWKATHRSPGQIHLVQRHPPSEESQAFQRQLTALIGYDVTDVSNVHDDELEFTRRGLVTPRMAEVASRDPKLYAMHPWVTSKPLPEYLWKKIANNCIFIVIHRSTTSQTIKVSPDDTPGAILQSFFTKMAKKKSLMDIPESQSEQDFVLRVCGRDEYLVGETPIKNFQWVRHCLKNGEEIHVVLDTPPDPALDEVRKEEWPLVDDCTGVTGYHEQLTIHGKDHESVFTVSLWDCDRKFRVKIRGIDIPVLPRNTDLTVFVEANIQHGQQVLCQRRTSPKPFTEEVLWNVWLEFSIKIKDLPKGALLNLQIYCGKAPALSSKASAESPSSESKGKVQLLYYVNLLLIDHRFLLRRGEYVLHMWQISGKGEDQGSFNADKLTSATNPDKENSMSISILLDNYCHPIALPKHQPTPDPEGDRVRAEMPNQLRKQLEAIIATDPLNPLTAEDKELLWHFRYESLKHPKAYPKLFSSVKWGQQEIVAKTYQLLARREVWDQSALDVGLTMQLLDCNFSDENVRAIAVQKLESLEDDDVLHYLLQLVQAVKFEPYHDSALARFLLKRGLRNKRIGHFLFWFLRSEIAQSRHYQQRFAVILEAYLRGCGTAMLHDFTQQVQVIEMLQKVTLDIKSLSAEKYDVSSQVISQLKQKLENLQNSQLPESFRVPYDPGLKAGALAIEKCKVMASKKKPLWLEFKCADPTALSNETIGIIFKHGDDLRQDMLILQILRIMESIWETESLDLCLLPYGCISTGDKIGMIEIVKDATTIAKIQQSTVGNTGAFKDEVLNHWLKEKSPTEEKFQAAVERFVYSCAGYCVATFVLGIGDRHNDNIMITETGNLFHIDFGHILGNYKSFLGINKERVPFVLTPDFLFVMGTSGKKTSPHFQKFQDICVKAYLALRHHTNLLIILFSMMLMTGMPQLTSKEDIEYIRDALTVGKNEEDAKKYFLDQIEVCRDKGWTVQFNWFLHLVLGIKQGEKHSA
T1 sequence (Q8WYR1 whole entry partner, species assumed): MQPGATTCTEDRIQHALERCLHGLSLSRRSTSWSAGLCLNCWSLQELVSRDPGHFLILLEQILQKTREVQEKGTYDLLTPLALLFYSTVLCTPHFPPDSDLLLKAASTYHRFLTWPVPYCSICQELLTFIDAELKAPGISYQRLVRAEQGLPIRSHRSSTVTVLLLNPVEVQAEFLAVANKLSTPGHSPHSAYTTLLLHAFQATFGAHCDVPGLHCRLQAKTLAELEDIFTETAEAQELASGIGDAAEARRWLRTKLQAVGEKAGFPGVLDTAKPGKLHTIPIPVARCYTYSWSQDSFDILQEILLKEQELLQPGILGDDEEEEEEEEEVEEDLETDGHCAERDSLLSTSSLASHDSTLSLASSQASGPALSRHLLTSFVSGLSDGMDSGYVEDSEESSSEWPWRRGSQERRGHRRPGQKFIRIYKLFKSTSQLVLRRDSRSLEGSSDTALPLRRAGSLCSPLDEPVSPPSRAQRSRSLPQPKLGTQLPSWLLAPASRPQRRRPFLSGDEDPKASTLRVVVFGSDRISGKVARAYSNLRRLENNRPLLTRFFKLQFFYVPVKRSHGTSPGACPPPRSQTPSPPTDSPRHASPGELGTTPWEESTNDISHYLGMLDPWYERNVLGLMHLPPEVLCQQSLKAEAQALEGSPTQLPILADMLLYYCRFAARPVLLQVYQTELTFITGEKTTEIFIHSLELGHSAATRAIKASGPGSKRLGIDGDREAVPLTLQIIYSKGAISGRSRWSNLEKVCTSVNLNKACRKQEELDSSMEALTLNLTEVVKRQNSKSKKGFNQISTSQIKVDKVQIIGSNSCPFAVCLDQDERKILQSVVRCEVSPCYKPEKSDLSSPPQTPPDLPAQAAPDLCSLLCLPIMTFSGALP

| Structure (SMILES) | IC50 [nM] |
| --- | --- |
| CCc1cccc(Oc2c(C(=O)Nc3nn[nH]n3)sc3ccc(OC)cc23)c1 [Example A.11, 3-(3-Ethyl-phenoxy)-5-Methoxy-benzo[b]thiophene-2-carboxylic acid (2H-tetrazol-5-yl)-amide] | 160 |
| COc1ccc2sc(C(=O)Nc3nn[nH]n3)c(Oc3cccc(N4CCOCC4)c3)c2c1 [Example A.12, 5-Methoxy-3-(3-morpholin-4-yl-phenoxy)-benzo[b]thiophene-2-carboxylic acid (2H-tetrazol-5-yl)-amide] | 495 |
| COc1ccc2sc(C(=O)Nc3nn[nH]n3)c(Oc3cccc(C(C)C)c3)c2c1 [Example A.13, 3-(3-Isopropyl-phenoxy)-5-Methoxy-benzo[b]thiophene-2-carboxylic acid (2H-tetrazol-5-yl)-amide] | 99 |
| COc1ccc2sc(C(=O)Nc3nn[nH]n3)c(Oc3cc(C)cc(C(C)C)c3)c2c1 [Example A.14, 3-(3-Isopropyl-5-methyl-phenoxy)-5-Methoxy-benzo[b]thiophene-2-carboxylic acid (2H-tetrazol-5-yl)-amide] | 268 |
| CCc1ccccc1Oc1c(C(=O)Nc2nn[nH]n2)sc2ccc(OC)cc12 [Example A.15, 3-(2-Ethyl-phenoxy)-5-Methoxy-benzo[b]thiophene-2-carboxylic acid (2H-tetrazol-5-yl)-amide] | 119 |
| COc1ccc2sc(C(=O)Nc3nn[nH]n3)c(Oc3ccc(C4CCCCC4)cc3)c2c1 [Example A.16, 3-(4-cyclohexyl-phenoxy)-5-Methoxy-benzo[b]thiophene-2-carboxylic acid (2H-tetrazol-5-yl)-amide] | 26 |
| COc1cc2c(Oc3ccccc3)c(C(=O)Nc3nn[nH]n3)sc2cc1C [Example B.1, 5-Methoxy-6-methyl-3-phenoxy-benzo[b]thiophene-2-carboxylic acid (2H-tetrazol-5-yl)-amide] | 27 |
| CCc1cccc(Oc2c(C(=O)Nc3nn[nH]n3)sc3cc(C)c(OC)cc23)c1 [Example B.2, 3-(3-Ethyl-phenoxy)-5-Methoxy-6-methyl-benzo[b]thiophene-2-carboxylic acid (2H-tetrazol-5-yl)-amide] | 18 |
| COc1cc2c(Oc3ccc4ccccc4c3)c(C(=O)Nc3nn[nH]n3)sc2cc1C [Example B.3, 5-Methoxy-6-methyl-3-(naphthalene-2-yloxy)-benzo[b]thiophene-2-carboxylic acid (2H-tetrazol-5-yl)-amide] | 79 |
| COc1cc2c(Oc3ccc(C4CCCCC4)cc3)c(C(=O)Nc3nn[nH]n3)sc2cc1C [Example B.4, 3-(4-Cyclohexyl-phenoxy)-5-methoxy-6-methyl-benzo[b]thiophene-2-carboxylic acid (2H-tetrazol-5-yl)-amide] | 37 |
| COc1cc2c(Oc3ccc4cc(Br)ccc4c3)c(C(=O)Nc3nn[nH]n3)sc2cc1C [Example B.5, 3-(6-Bromo-naphthalen-2-yloxy)-5-methoxy-6-methyl-benzo[b]thiophene-2-carboxylic acid (2H-tetrazol-5-yl)-amide] | 520 |
| CCOC(=O)Cc1ccc(Oc2c(C(=O)Nc3nn[nH]n3)sc3cc(C)c(OC)cc23)cc1 [Example B.6, {4-[5-Methoxy-6-methyl-2-(2H-tetrazol-5-ylcarbamoyl)-benzo[b]thiophene-3-yloxy]-phenyl}-acetic acid ethyl ester] | 12 |
| COc1cc2c(Oc3ccc(CC(=O)N4CCCCC4)cc3)c(C(=O)Nc3nn[nH]n3)sc2cc1C [Example B.7, 5-Methoxy-6-methyl-3-[4-(2-oxo-2-piperidin-1-yl-ethyl)-phenoxy]-benzo[b]thiophene-2-carboxylic acid (2H-tetrazol-5-yl)-amide] | 28 |
| COc1cc2c(Oc3ccc(CCC(=O)N4CCCCC4)cc3)c(C(=O)Nc3nn[nH]n3)sc2cc1C [Example B.8, 5-Methoxy-6-methyl-3-[4-(3-oxo-3-piperidin-1-yl-propyl)-phenoxy]-benzo[b]thiophene-2-carboxylic acid (2H-tetrazol-5-yl)-amide] | 33 |
| COc1cc2c(Oc3cccc(C4CCCCC4)c3)c(C(=O)Nc3nn[nH]n3)sc2cc1C [Example B.9, 3-(3-Cyclohexyl-phenoxy)-5-methoxy-6-methyl-benzo[b]thiophene-2-carboxylic acid (2H-tetrazol-5-yl)-amide] | 63 |
| COc1cc2c(Oc3ccc(CCBr)cc3)c(C(=O)Nc3nn[nH]n3)sc2cc1C [Example B.10, 3-[4-(2-Bromo-ethyl)-phenoxy]-5-methoxy-6-methyl-benzo[b]thiophene-2-carboxylic acid (2H-tetrazol-5-yl)-amide] | 15 |
| COc1cc2c(Oc3ccc4c(c3)CCCC4)c(C(=O)Nc3nn[nH]n3)sc2cc1C [Example B.11, 5-Methoxy-6-methyl-3-(5,6,7,8-tetrahydro-naphthalen-2yloxy)-benzo[b]thiophene-2-carboxylic acid (2H-tetrazol-5-yl)-amide] | 86 |
| COc1cc2c(Oc3ccc(C(C)C)cc3)c(C(=O)Nc3nn[nH]n3)sc2cc1C [Example B.12, 3-(4-Isopropyl-phenoxy)-5-methoxy-6-methyl-benzo[b]thiophene-2-carboxylic acid (2H-tetrazol-5-yl)-amide] | 17 |
| CCCCc1ccc(Oc2c(C(=O)Nc3nn[nH]n3)sc3cc(C)c(OC)cc23)cc1 [Example B.13, 3-(4-Butyl-phenoxy)-5-methoxy-6-methyl-benzo[b]thiophene-2-carboxylic acid (2H-tetrazol-5-yl)-amide] | 31 |
| CCCCCCOc1ccc(Oc2c(C(=O)Nc3nn[nH]n3)sc3cc(C)c(OC)cc23)cc1 [Example B.14, 3-(4-Hexyloxy-phenoxy)-5-methoxy-6-methyl-benzo[b]thiophene-2-carboxylic acid (2H-tetrazol-5-yl)-amide] | 365 |
| COc1cc2c(Oc3ccc(OCc4ccccc4)cc3)c(C(=O)Nc3nn[nH]n3)sc2cc1C [Example B.15, 3-(4-Benzyloxy-phenoxy)-5-methoxy-6-methyl-benzo[b]thiophene-2-carboxylic acid (2H-tetrazol-5-yl)-amide] | 76 |
| COc1cc2c(Oc3ccc(OCC4CCCCC4)cc3)c(C(=O)Nc3nn[nH]n3)sc2cc1C [Example B.16, 3-(4-Cyclohexylmethoxy-phenoxy)-5-methoxy-6-methyl-benzo[b]thiophene-2-carboxylic acid (2H-tetrazol-5-yl)-amide] | 126 |
| COc1cc2c(Oc3ccc(OC4CCCC4)cc3)c(C(=O)Nc3nn[nH]n3)sc2cc1C [Example B.17, 3-(4-Cyclopentyloxy-phenoxy)-5-methoxy-6-methyl-benzo[b]thiophene-2-carboxylic acid (2H-tetrazol-5-yl)-amide] | 4 |
| COc1cc2c(Oc3cccc(C(C)(C)C)c3)c(C(=O)Nc3nn[nH]n3)sc2cc1C [Example B.18, 3-(3-tert-Butyl-phenoxy)-5-methoxy-6-methyl-benzo[b]thiophene-2-carboxylic acid (2H-tetrazol-5-yl)-amide] | 29 |
| COc1cc2c(Oc3ccc(C(C)(C)C)cc3)c(C(=O)Nc3nn[nH]n3)sc2cc1C [Example B.19, 3-(4-tert-Butyl-phenoxy)-5-methoxy-6-methyl-benzo[b]thiophene-2-carboxylic acid (2H-tetrazol-5-yl)-amide] | 9 |
